Source: PMC7382816 (BMC Pharmacology & Toxicology, 2020)
Like-named read-outs stand apart in the source and are kept apart here.

Experiments:
[1] = Single-dose pharmacokinetics in healthy volunteers under fasting and fed (high-fat breakfast) conditions, plasma concentrations by HPLC-MS, non-compartmental analysis; type: in vivo, human; set-up: Ke: unit not given here
Description: The bioequivalence clinical trials were phase I, randomized, open-label, crossover, single-centre, with two periods separated by a 7-day washout stage. Subjects were randomised to one of the two treatment sequences, RT or TR where R was the reference formulation and T was the test formulation. Each of the clinical trial was crossover for evaluation of a test formulation compared to a reference formulation either under fed or fasting conditions. […] The treatments were allocated in a balanced manner on every inclusion day (blocks of 4 subjects). Our study adheres to CONSORT guidelines. […] Sample processing, genotyping for CYP2C19 and drug quantification were performed according to Román et al. […] Pharmacokinetic parameters were estimated from the plasma concentration–time data by non-compartmental analysis (WinNonlin Professional, version 2.0., Pharsight Corporation, USA) as reported by Román et al. […] WinNonLin Professional software version 2.0 was used for the statistical analysis. Pharmacokinetic parameters were log-transformed, and AUC and Cmax were adjusted for dose and weight. The values of pharmacokinetic parameters were expressed as mean ± standard deviation.

[2] = review; ref [26] Swan et al.; cited from earlier work
[3] = Fed (high-fat breakfast), all subjects, single oral dose, mean ± SD
[4] = both sexes, human, plasma, oral, only CYP2C19*1/*1 subjects, Fast, men and women, mean ± SD
[5] = both sexes, human, plasma, oral, only CYP2C19*1/*1 subjects, Fed, men and women, mean ± SD
[6] = both sexes, human, plasma, po, Fast, all subjects, single oral dose, mean ± SD
[7] = both sexes, human, plasma, po, Fed (high-fat breakfast), all subjects, single oral dose, mean ± SD
[8] = female, human, plasma, oral, only CYP2C19*1/*1 subjects, Fast, women, mean ± SD
[9] = female, human, plasma, oral, only CYP2C19*1/*1 subjects, Fed, women, mean ± SD
[10] = female, human, plasma, po, Fast, women, single oral dose, mean ± SD
[11] = female, human, plasma, po, Fed, women, single oral dose, mean ± SD
[12] = male, human, plasma, oral, only CYP2C19*1/*1 subjects, Fast, men, mean ± SD
[13] = male, human, plasma, oral, only CYP2C19*1/*1 subjects, Fed, men, mean ± SD
[14] = male, human, plasma, po, Fast, men, single oral dose, mean ± SD
[15] = male, human, plasma, po, Fed, men, single oral dose, mean ± SD

Ke ([1]; Fast, all subjects, single oral dose, mean ± SD): 0.60 ± 0.20 | Ke ([1]; Fast, men, single oral dose, mean ± SD): 0.64 ± 0.20 | Ke ([1]; Fast, women, single oral dose, mean ± SD): 0.56 ± 0.20 | Cmax [1, 3]: 675.8 ± 218.8 ng/mL | Ke [1, 3]: 0.42 ± 0.22 | Ke ([1]; Fed, men, single oral dose, mean ± SD): 0.38 ± 0.17 | Ke ([1]; Fed, women, single oral dose, mean ± SD): 0.48 ± 0.27 | AUC(0-inf) [1, 4]: 901 ± 235 ng·h/mL | CL/F [1, 4]: 6.17 mL/min/kg | Vd/F [1, 4]: 0.6 ± 0.11 L/kg | half-life [1, 4]: 1.3 ± 0.6 h | Cmax ([1]; both sexes, human, plasma, oral, only CYP2C19*1/*1 subjects, Fast, men and women, mean ± SD, read-out: Cmax): 536 ± 138 ng/mL | Tmax ([1]; both sexes, human, plasma, oral, only CYP2C19*1/*1 subjects, Fast, men and women, mean ± SD, read-out: Tmax): 3.9 ± 0.8 h | AUC(0-inf) [1, 5]: 969 ± 388 ng·h/mL | CL/F [1, 5]: 6.33 mL/min/kg | Vd/F [1, 5]: 0.92 ± 0.34 L/kg | half-life [1, 5]: 2 ± 0.9 h | Cmax ([1]; both sexes, human, plasma, oral, only CYP2C19*1/*1 subjects, Fed, men and women, mean ± SD, read-out: Cmax): 606 ± 207 ng/mL | Tmax ([1]; both sexes, human, plasma, oral, only CYP2C19*1/*1 subjects, Fed, men and women, mean ± SD, read-out: Tmax): 9.1 ± 3.3 h | Tmax ([1]; both sexes, human, plasma, oral, under fasting conditions, range among subjects, read-out: Tmax range): 2 to 7 h | Tmax ([1]; both sexes, human, plasma, oral, under fed conditions, range among subjects, read-out: Tmax range): 3 to 20 h | AUC(0-inf) [1, 6]: 972 ± 361 ng·h/mL | CL/F [1, 6]: 5.83 mL/min/kg | Vd/F [1, 6]: 0.6 ± 0.17 L/kg | half-life [1, 6]: 1.3 ± 0.5 h | Cmax ([1]; both sexes, human, plasma, po, Fast, all subjects, single oral dose, mean ± SD, read-out: Cmax): 556 ± 176 ng/mL | Tmax ([1]; both sexes, human, plasma, po, Fast, all subjects, single oral dose, mean ± SD, read-out: Tmax): 3.7 ± 0.9 h | AUC(0-inf) [1, 7]: 1050 ± 382 ng·h/mL | CL/F [1, 7]: 5.67 mL/min/kg | Vd/F [1, 7]: 0.91 ± 0.45 L/kg | half-life [1, 7]: 2.2 ± 1.3 h | Tmax ([1]; both sexes, human, plasma, po, Fed (high-fat breakfast), all subjects, single oral dose, mean ± SD, read-out: Tmax): 7.2 ± 2.6 h | difference in AUC between men and women ([1]; effect of sex (CYP2C19*1/*1 subjects, fed conditions)): around 5% | Cmax higher under fed conditions ([1]; fed vs fasting, all subjects): 21% | Delay of mean Tmax (absorption) by food ([1]; fed vs fasting, all subjects): about 3.5 h | half-life higher under fed conditions ([1]; fed vs fasting, all subjects): 66% | Delay of Tmax by food ([1]; fed vs fasting, only subjects with CYP2C19*1/*1): 5.2 h | AUC(0-inf) [1, 8]: 932 ± 172 ng·h/mL | CL/F [1, 8]: 6.83 mL/min/kg | Vd/F [1, 8]: 0.61 ± 0.12 L/kg | half-life [1, 8]: 1.1 ± 0.2 h | Cmax ([1]; female, human, plasma, oral, only CYP2C19*1/*1 subjects, Fast, women, mean ± SD, read-out: Cmax): 560 ± 136 ng/mL | Tmax ([1]; female, human, plasma, oral, only CYP2C19*1/*1 subjects, Fast, women, mean ± SD, read-out: Tmax): 3.8 ± 0.7 h | AUC(0-inf) [1, 9]: 944 ± 470 ng·h/mL | CL/F [1, 9]: 7.5 mL/min/kg | Vd/F [1, 9]: 0.85 ± 0.32 L/kg | half-life [1, 9]: 1.5 ± 0.9 h | Cmax ([1]; female, human, plasma, oral, only CYP2C19*1/*1 subjects, Fed, women, mean ± SD, read-out: Cmax): 634 ± 221 ng/mL | Tmax ([1]; female, human, plasma, oral, only CYP2C19*1/*1 subjects, Fed, women, mean ± SD, read-out: Tmax): 8.2 ± 0.6 h | AUC(0-inf) [1, 10]: 1120 ± 361 ng·h/mL | CL/F [1, 10]: 5.83 mL/min/kg | Vd/F [1, 10]: 0.65 ± 0.2 L/kg | half-life [1, 10]: 1.4 ± 0.5 h | Cmax ([1]; female, human, plasma, po, Fast, women, single oral dose, mean ± SD, read-out: Cmax): 638 ± 177 ng/mL | Tmax ([1]; female, human, plasma, po, Fast, women, single oral dose, mean ± SD, read-out: Tmax): 3.7 ± 0.9 h | AUC(0-inf) [1, 11]: 1050 ± 420 ng·h/mL | CL/F [1, 11]: 6.33 mL/min/kg | Vd/F [1, 11]: 0.92 ± 0.37 L/kg | half-life [1, 11]: 2 ± 1.3 h | Cmax ([1]; female, human, plasma, po, Fed, women, single oral dose, mean ± SD, read-out: Cmax): 728 ± 284 ng/mL | Tmax ([1]; female, human, plasma, po, Fed, women, single oral dose, mean ± SD, read-out: Tmax): 7.6 ± 2 h | AUC(0-inf) [1, 12]: 870 ± 296 ng·h/mL | CL/F [1, 12]: 5.5 mL/min/kg | Vd/F [1, 12]: 0.59 ± 0.1 L/kg | half-life [1, 12]: 1.5 ± 0.7 h | Cmax ([1]; male, human, plasma, oral, only CYP2C19*1/*1 subjects, Fast, men, mean ± SD, read-out: Cmax): 512 ± 147 ng/mL | Tmax ([1]; male, human, plasma, oral, only CYP2C19*1/*1 subjects, Fast, men, mean ± SD, read-out: Tmax): 3.9 ± 1 h | AUC(0-inf) [1, 13]: 1000 ± 323 ng·h/mL | CL/F [1, 13]: 5 mL/min/kg | Vd/F [1, 13]: 1.02 ± 0.39 L/kg | half-life [1, 13]: 2.5 ± 0.7 h | Cmax ([1]; male, human, plasma, oral, only CYP2C19*1/*1 subjects, Fed, men, mean ± SD, read-out: Cmax): 572 ± 215 ng/mL | Tmax ([1]; male, human, plasma, oral, only CYP2C19*1/*1 subjects, Fed, men, mean ± SD, read-out: Tmax): 10.3 ± 5.1 h | AUC(0-inf) [1, 14]: 836 ± 313 ng·h/mL | CL/F [1, 14]: 5.83 mL/min/kg | Vd/F [1, 14]: 0.55 ± 0.11 L/kg | half-life [1, 14]: 1.2 ± 0.5 h | Cmax ([1]; male, human, plasma, po, Fast, men, single oral dose, mean ± SD, read-out: Cmax): 479 ± 140 ng/mL | Tmax ([1]; male, human, plasma, po, Fast, men, single oral dose, mean ± SD, read-out: Tmax): 3.6 ± 0.9 h | AUC(0-inf) [1, 15]: 1050 ± 361 ng·h/mL | CL/F [1, 15]: 5.17 mL/min/kg | Vd/F [1, 15]: 0.91 ± 0.52 L/kg | half-life [1, 15]: 2.3 ± 1.3 h | Cmax ([1]; male, human, plasma, po, Fed, men, single oral dose, mean ± SD, read-out: Cmax): 635 ± 145 ng/mL | Tmax ([1]; male, human, plasma, po, Fed, men, single oral dose, mean ± SD, read-out: Tmax): 6.9 ± 3 h | Ke ([1]; only CYP2C19*1/*1 subjects, Fast, men and women, mean ± SD): 0.63 ± 0.20 | Ke ([1]; only CYP2C19*1/*1 subjects, Fast, men, mean ± SD): 0.57 ± 0.25 | Ke ([1]; only CYP2C19*1/*1 subjects, Fast, women, mean ± SD): 0.68 ± 0.13 | Ke ([1]; only CYP2C19*1/*1 subjects, Fed, men and women, mean ± SD): 0.45 ± 0.23 | Ke ([1]; only CYP2C19*1/*1 subjects, Fed, men, mean ± SD): 0.30 ± 0.11 | Ke ([1]; only CYP2C19*1/*1 subjects, Fed, women, mean ± SD): 0.57 ± 0.25
SMILES: COCCCOc1ccnc(C[S+]([O-])c2nc3ccccc3[nH]2)c1C (centres unmarked) [Rabeprazole, rabeprazole]
influence of co-ingestion of food on bioavailability [2]: not influenced
